# Data published in patent US20160152679A1, “RELAXIN-LIKE COMPOUNDS AND USES THEREOF” (ANGION BIOMEDICA CORP., priority 2012, published 2016).
# System: parental HEK-293T cells
# Experiment: cAMP-Glo assay in parental HEK-293T cells lacking RXFP1
# Format: cell-based
# Conditions: parental HEK-293T cells (lack RXFP1); relaxin 10 ng/mL or compound 10 µg/mL; 30 or 60 min
substance,measurement,value
relaxin,cAMP response in parental cells,no cAMP response
